The text below walks through data of article PMC12311865, “In Vitro Evaluation of the Potential Interactions of Zearalenone-14-sulfate and Zearalenone-14-glucuronide with Human Cytochrome P450 Enzymes, Organic Anion Transporting Polypeptides, and ATP-Binding Cassette Multidrug Transporters” (ACS Omega, 2025).

Read-outs that look alike come from different tables or passages of the source.

Assay [1] deals with T1, OATP1B3 (Homo sapiens, UniProt Q9NPD5).
T1 construct: expressed in transfected cells; host or cells: A431
T1 sequence (Q9NPD5 1-702): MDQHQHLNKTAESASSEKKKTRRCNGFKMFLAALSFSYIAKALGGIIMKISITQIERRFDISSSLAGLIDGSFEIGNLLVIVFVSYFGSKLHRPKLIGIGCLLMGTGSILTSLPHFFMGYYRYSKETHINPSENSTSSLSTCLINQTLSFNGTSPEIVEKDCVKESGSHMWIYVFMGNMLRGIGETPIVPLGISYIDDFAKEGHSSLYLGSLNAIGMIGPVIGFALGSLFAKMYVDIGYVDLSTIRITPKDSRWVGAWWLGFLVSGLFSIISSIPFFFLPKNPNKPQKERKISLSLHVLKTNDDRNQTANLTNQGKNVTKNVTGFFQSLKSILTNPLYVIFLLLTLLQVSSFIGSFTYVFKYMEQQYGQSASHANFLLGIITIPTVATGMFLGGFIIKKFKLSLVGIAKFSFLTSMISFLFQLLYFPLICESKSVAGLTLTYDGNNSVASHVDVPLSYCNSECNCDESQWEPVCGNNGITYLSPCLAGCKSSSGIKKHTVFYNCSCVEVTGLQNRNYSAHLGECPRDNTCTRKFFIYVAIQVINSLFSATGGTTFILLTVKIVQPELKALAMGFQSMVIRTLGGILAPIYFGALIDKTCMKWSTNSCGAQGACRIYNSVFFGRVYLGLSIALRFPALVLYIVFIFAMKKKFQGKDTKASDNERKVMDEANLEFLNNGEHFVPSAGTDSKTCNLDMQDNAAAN
Further details: method as in earlier report. Conditions: same experimental model; ref earlier report; cited from earlier work.

Assay [2] concerns the target T2, OATP2B1 (Homo sapiens, UniProt O94956).
T2 construct: expressed in transfected cells; host or cells: A431
T2 sequence (O94956 1-709): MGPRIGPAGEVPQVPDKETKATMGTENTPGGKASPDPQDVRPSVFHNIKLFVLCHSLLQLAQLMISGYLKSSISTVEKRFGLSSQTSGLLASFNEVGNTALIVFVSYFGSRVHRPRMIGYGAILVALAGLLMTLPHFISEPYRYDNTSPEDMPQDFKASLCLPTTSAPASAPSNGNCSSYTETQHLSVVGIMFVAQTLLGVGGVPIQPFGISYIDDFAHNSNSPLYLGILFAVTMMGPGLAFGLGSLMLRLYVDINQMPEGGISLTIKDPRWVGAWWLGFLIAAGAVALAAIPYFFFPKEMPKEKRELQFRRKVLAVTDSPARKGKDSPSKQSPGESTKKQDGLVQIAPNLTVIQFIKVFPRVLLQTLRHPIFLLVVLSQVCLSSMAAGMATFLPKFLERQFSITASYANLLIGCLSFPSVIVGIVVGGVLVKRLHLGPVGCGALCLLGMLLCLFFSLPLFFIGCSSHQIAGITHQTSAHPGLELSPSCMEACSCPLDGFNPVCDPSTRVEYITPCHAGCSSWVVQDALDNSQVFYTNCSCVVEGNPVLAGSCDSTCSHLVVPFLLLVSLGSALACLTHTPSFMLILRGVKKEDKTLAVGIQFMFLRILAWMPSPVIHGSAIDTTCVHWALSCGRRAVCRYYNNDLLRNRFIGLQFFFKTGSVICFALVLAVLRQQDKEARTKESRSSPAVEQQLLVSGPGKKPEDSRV
Further details: method as in earlier report. Conditions: same experimental model; ref earlier report; cited from earlier work.

Assay [3] concerns the target T2, OATP2B1. As to the kind of experiment: OATP2B1-mediated pyranine uptake in overexpressing A431 cells. It is filed as cell-based. As to the method:
The human epidermoid carcinoma cell (A431) overexpressing OATP1A2, OATP1B1, OATP1B3, or OATP2B1 transporters and their mock control cells were generated previously as described. , Cell culture was maintained in DMEM supplemented with 10% fetal bovine serum, 2 mM L-glutamine, 100 units/mL penicillin, and 100 μg/mL streptomycin at 37 °C and 5% CO2.
The inhibitory effects of mycotoxins (Z14S and Z14GA) were examined using indirect fluorescence assays, where pyranine and SR101 were used as fluorescent substrates. , A431 cells overexpressing OATP1A2, OATP1B1/3, or OATP2B1 and their mock-transfected controls were seeded at a density of 8 × 10^4 cells/well onto 96-well plates and incubated for 18–22 h prior to transport measurements. The next day, plated cells were washed three times with 200 μL of PBS (phosphate-buffered saline, pH 7.4) and preincubated with 50 μL of transport buffer (pH 5.5; 125 mM NaCl, 4.8 mM KCl, 1.2 mM CaCl2, 1.2 mM KH2PO4, 12 mM MgSO4, 25 mM MES, and 5.6 mM glucose) with or without increasing concentrations of the mycotoxins tested (0.001–20 μM) for 5 min at 37 °C. The transport inhibition measurements were initiated by adding 50 μL of transport buffer containing the proper fluorescent substrate SR101 (0.5 μM, OATP1A2) or pyranine (10 μM for OATP1B1 or 20 μM for OATP1B3 and OATP2B1). After 10 min (OATP1A2), 15 min (OATP1B1 and OATP2B1), or 30 min (OATP1B3) incubation, the transport was terminated by washing the cells three times with ice-cold PBS. Regarding the individual OATP assays, we applied different incubation times to keep the substrate uptake in the linear range, , avoiding substrate depletion or saturation effects, as it is indispensable for the accurate assessment. Using an Enspire plate reader (PerkinElmer, Waltham, MA), the fluorescence was measured at excitation/emission wavelengths of 460/510 nm (pyranine) or 586/605 nm (SR101).
OATP-mediated transport was obtained by subtracting the activity of the mock control cells from the activity of the OATP-expressing cells. The transport activity (%) of the OATPs was calculated by comparing the fluorescence signal obtained in the absence of the compounds tested (set to 100%).

Take `C[C@H]1CCCC(=O)CCC/C=C/c2cc(O)cc(O)c2C(=O)O1` [ZEN, Zearalenone]: the half-inhibitory concentration (IC50) in assay [1] was 8100 nM; in assay [2], 2300 nM.
With `C[C@H]1CCCC(=O)CCC/C=C/c2cc(O[C@@H]3O[C@H](C(=O)O)[C@@H](O)[C@H](O)[C@H]3O)cc(O)c2C(=O)O1` [Z14GA, Zearalenone-14-glucuronide], in assay [3] (pyranine 20 μM, 15 min, A431 cells, read-out: IC50 for OATP2B1), the IC50 came to 1100 nM.
In assay [3], `C[C@H]1CCCC(=O)CCC/C=C/c2cc(OS(=O)(=O)O)cc(O)c2C(=O)O1` [Z14S, zearalenone-14-sulfate] registered an IC50 of 340 nM. Besides, the “effect on OATP2B1-mediated dye uptake” value in assay [3] (5 μM, pyranine substrate) is “completely abolished”. In addition, the “decrease in OATP2B1 transport activity” value in assay [3] (20 μM, pyranine substrate, A431 cells) is 80–100%. Further, the “stronger inhibition on OATP2B1 compared to ZEN” value in assay [3] (ratio of IC50 values vs ZEN) was “approximately 7 fold”.
